In data set [1] the target is Cytochrome P450 2D6 (Homo sapiens, UniProt P10635). Description: Inhibition of human CYP2D6 at 10 uM. It is filed as ADME.
Data set [2] can be described thus: Plasma protein binding in mouse at 10 uM assessed as bound fraction. It is filed as ADME, cell-free. Conditions: read-out: PPB (converted); call rule not given here.
The nature of data set [3]: Oral bioavailability in CD rat at 50 mg/kg measured for 24 hrs by LC-MS/MS analysis. Conditions: in vivo, po, 50 mg/kg, 24 h. It is filed as ADME, organism-based.
The nature of data set [4]: Cmax in CD rat at 50 mg/kg, po measured for 24 hrs by LC-MS/MS analysis. In kind it is ADME, organism-based. Conditions: in vivo. The arrangement: dose 50 mg/kg, time 24 hrs, route po.
Data set [5] in a line: Selectivity ratio of IC50 for CD73 in human plasma to IC50 for C-terminal 6His-tagged recombinant human CD73 (27 to 547 residues) expressed in CHO cells. In kind it is cell-based.

From ChEMBL document CHEMBL5316268 (J Med Chem, 2023) come the findings set out here.

Chain of Cytochrome P450 2D6 (P10635 whole entry): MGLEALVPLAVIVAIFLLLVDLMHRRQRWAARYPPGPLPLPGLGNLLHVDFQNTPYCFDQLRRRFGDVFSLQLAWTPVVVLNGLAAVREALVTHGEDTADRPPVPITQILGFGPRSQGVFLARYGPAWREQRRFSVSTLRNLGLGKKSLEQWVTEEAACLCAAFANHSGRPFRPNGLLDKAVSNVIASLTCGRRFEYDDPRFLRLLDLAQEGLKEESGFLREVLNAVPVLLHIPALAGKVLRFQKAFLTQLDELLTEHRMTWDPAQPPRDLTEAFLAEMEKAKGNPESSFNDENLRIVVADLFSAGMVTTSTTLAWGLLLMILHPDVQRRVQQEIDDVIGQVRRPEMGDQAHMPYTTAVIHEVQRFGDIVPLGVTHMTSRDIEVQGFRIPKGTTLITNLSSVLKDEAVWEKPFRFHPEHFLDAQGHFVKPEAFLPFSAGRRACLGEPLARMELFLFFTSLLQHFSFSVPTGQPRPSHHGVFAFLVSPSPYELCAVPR

As a reminder, the Cmax is the highest concentration seen after dosing. Take `C#C[C@@]1(O)[C@@H](COC(Cc2ccc(N3CCCNC3=O)cc2)(C(=O)O)C(=O)O)O[C@@H](n2cnc3c(N)nc(Cl)nc32)[C@@H]1O`: in data set [1], the “inhibition (INH)” value is “Not Active”. In data set [2], the fraction unbound at 10 µM was 0.37. For the same molecule, in data set [3], the F is given as 2.8%. Besides, in data set [4], the concentration peaked (Cmax) at 74 nM. Moreover, the Ratio IC50 in data set [5] is 2.2.
